From article PMC6934184, “Selective DNA-PKcs inhibition extends the therapeutic index of localized radiotherapy and chemotherapy” (The Journal of Clinical Investigation, 2019)

Target: T1, PTK2 (FAK) (Homo sapiens, UniProt Q05397)
T1 construct: purchased Thermo Fisher Scientific (Life Technologies) SelectScreen
Experiment: SelectScreen Z'LYTE
Format: biochemical
Summary of the method: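 Percent values come from Thermo SelectScreen profiling of NU5455, combining activity and binding assays. CSF1R was run in Z'LYTE format at Km app ATP, and CAMK1 in Adapta format with ATP listed at 10.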

T1 sequence (Q05397 whole entry): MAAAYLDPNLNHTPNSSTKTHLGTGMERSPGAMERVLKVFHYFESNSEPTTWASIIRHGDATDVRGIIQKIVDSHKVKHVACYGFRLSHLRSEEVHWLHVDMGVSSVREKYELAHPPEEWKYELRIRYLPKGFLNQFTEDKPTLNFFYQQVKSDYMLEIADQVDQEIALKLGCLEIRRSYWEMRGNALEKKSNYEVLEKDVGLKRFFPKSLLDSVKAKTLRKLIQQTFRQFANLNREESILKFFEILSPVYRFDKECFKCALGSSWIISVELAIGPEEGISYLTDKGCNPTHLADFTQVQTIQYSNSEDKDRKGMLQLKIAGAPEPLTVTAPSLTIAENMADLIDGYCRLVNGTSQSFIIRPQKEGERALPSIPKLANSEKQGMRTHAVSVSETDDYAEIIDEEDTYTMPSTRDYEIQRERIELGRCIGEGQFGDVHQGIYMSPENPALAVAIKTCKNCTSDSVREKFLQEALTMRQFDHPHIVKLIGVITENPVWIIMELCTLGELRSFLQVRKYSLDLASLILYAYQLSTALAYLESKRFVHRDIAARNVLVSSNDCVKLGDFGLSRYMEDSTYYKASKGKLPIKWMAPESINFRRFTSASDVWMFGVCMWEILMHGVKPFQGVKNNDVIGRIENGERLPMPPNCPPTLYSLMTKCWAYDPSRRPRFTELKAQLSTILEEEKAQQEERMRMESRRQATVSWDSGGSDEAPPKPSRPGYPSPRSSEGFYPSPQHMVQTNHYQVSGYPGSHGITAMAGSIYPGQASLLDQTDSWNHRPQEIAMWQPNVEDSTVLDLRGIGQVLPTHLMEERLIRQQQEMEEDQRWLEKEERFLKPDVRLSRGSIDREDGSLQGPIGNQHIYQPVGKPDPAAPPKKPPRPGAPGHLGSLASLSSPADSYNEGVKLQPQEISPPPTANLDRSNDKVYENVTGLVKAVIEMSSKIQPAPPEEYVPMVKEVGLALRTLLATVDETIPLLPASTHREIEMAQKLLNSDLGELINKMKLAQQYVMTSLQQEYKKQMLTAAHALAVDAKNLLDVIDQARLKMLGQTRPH

For `CN(C(=O)CN1CCOCC1)c1ccc2sc3c(-c4cccc5c(=O)cc(N6CC7CCC(C6)O7)oc45)cccc3c2c1` [NU5455], the inhibition at 1 µM was 5.1%.
